Experimental data from PMC11184554, “Nature-Inspired Gallinamides Are Potent Antischistosomal Agents: Inhibition of the Cathepsin B1 Protease Target and Binding Mode Analysis” (ACS Infectious Diseases, 2024).
Where two headings read alike, the source gives them in different places.

Key:
SmCB1 = SmCB1 (Schistosoma mansoni, UniProt Q8MNY2, T185A/T300A); experiment: SmCB1 IC50 determination with 30 min preincubation; assay type: biochemical, S. mansoni
Protocol: Inhibition measurements were performed in duplicate in 96-well microplates (100 μL assay volume) at 37 °C. SmCB1 (40 pM) was added to a mixture of the fluorogenic substrate Cbz–Phe–Arg–AMC (25 μM) and an inhibitor (0–100 μM) in 0.1 M sodium acetate, pH 5.5, containing 2.5 mM dithiothreitol and 0.01% (w/v) BRIJ 35. Substrate hydrolysis was monitored in an Infinite M1000 microplate reader (Tecan) at excitation and emission wavelengths of 360 and 465 nm, respectively, for up to 150 min. An observed first-order rate constant, kobs, was calculated at each inhibitor concentration by fitting the progress curve to the equation P = vi/kobs(1 – exp(−kobst)) + d where P is the product formation, t is the reaction time, vi is the initial velocity, and d is the offset. […] The second-order rate constant, k2nd, (and SE value) was determined by fitting the linear equation kobs = (k2nd[I])/(1 + [S]/Km), where [S] is the substrate concentration, [I] is the inhibitor concentration, and KM is the Michaelis–Menten constant. The KM value determined for SmCB1 was 25 μM. […] To determine IC50 values, SmCB1 (40 pM) was preincubated with the inhibitor (0–100 μM) for 30 min under assay conditions as described above, followed by the addition of the fluorogenic substrate Cbz–Phe–Arg–AMC (20 μM). Substrate hydrolysis was monitored for 30 min in a microplate reader as described above. The IC50 values were determined by nonlinear regression using GraFit software (Erithacus Software).

[1] = Cytotoxicity, CellTiter Glo 2.0; assay type: cell-based; conditions: human, ± SD; for viability at 72 h, 1 µM: panel A, read-out: Cell line viability after 72 h (%); for viability at 24 h, 10 µM / viability at 48 h, 10 µM / viability at 72 h, 10 µM: panel B, read-out: Cell line viability (%) after treatment with 10 µM compound
Protocol: Table S4. Cytotoxicity of gallinamides.
Cytotoxicity of gallinamide A and compounds 1, 6, and 9 was tested with four human cell lines and expressed as % viability vs. untreated cells. Cells were treated with the indicated compound concentrations for 72 h (A) or with 10 µM compounds for the indicated time (B) and assayed using CellTiter Glo 2.0 (Promega) according to the manufacturer’ s protocol. Cytotoxicity was expressed as percent viability compared to untreated control cells; the standard deviation of the mean of quadruplicate readings is shown. Cell line abbreviations: HL-60, human promyelocytic leukemia; HeLa, human cervical carcinoma; HepG2, human hepatocellular carcinoma; NHDF, normal human dermal fibroblasts.
Cell line viability after 72 h (%)
Cell line HL-60 HeLa HepG2 NHDF
Cell line viability (%) after treatment w ith 10 µM compound

legumain = experiment: Protease activity in S. mansoni adult extract, Cbz–Ala–Ala–Asn–AMC; assay type: biochemical; conditions: 1 μM gallinamide A, substrate Cbz–Ala–Ala–Asn–AMC, in the presence of E-64, mean ± SD
From the text: We investigated whether gallinamide A inhibits the activity of the major proteases associated with proteolytic digestion in the adult schistosome gut. The digestive protease network includes the cysteine proteases cathepsins B, C, L from clan CA and legumain from clan CD, and an aspartic protease cathepsin D from clan AA.[11],[12] Their respective activities can be measured in protein extracts of S. mansoni using a kinetic assay with specific fluorogenic substrates. In addition, these activities can be attributed to particular proteases based on sensitivity to selective inhibitors[30]−[32] (Table 1). Accordingly, we exposed worm extracts to gallinamide A and analyzed the individual protease activities. Gallinamide A inhibited both the carboxydipeptidase (98%) and endopeptidase activities (94%) of cathepsin B as measured with the respective substrates, Abz–Phe–Arg–Val–Nph[15] and Cbz–Arg–Arg–AMC[33],[34] (Table 1). The activity measured with the Cbz–Phe–Arg–AMC substrate,[11],[13],[16],[33],[35] which can be cleaved by both cathepsins B and L, was inhibited by gallinamide A to a lesser extent (72%). […]
Proteolytic activities in S. mansoni adult extracts were measured in a continuous kinetic assay using the following peptidyl fluorogenic substrates (Bachem) or internally quenched FRET substrates (IOCB): 50 μM Cbz–Phe–Arg–AMC for cathepsins B and L,[13],[15] […]

Sequence of SmCB1 (Q8MNY2 87-340 T185A/T300A): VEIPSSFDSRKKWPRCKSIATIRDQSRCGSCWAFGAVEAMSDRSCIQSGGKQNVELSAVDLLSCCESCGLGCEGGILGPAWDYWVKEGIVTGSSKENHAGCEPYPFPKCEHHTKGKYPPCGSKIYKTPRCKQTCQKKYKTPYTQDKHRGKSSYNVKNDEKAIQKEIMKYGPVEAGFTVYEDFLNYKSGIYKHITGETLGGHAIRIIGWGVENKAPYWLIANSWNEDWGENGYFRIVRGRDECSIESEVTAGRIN

Structure (SMILES)	IC50 (SmCB1) [nM]	viability at 72 h, 1 µM ([1]; HL-60, vs untreated cells) [%]	viability at 72 h, 1 µM ([1]; HeLa) [%]	viability at 72 h, 1 µM ([1]; HepG2) [%]	viability at 72 h, 1 µM ([1]; NHDF) [%]	viability at 24 h, 10 µM ([1]; HL-60) [%]	viability at 48 h, 10 µM ([1]; HL-60) [%]	viability at 72 h, 10 µM ([1]; HL-60) [%]	viability at 24 h, 10 µM ([1]; HeLa) [%]	viability at 48 h, 10 µM ([1]; HeLa) [%]	viability at 72 h, 10 µM ([1]; HeLa) [%]	viability at 24 h, 10 µM ([1]; HepG2) [%]	viability at 48 h, 10 µM ([1]; HepG2) [%]	viability at 72 h, 10 µM ([1]; HepG2) [%]	viability at 24 h, 10 µM ([1]; NHDF) [%]	viability at 48 h, 10 µM ([1]; NHDF) [%]	viability at 72 h, 10 µM ([1]; NHDF) [%]	inhibition (%) (legumain)	inhibition (%) (legumain; listed as Gallinamide A)
CCC(C)C(C(=O)OC(CC(C)C)C(=O)NC(CC(C)C)C(=O)NC(C)C=CC(=O)N1C(=O)C=C(OC)C1CC(C)C)N(C)C (stereo not shown) [compound 1]	92	–	–	–	–	–	–	–	–	–	–	–	–	–	–	–	–	–	–
COC1=CC(=O)N(C(=O)/C=C/[C@H](C)NC(=O)[C@H](CC(C)C)NC(=O)[C@H](CC(C)C)OC(=O)[C@H](Cc2ccccc2)N(C)C)[C@H]1Cc1ccccc1 [compound 6]	517	100 ± 5	93 ± 4	104 ± 3	99 ± 3	31 ± 1	11 ± 2	11	45 ± 1	13 ± 1	13 ± 1	61 ± 1	14 ± 1	13 ± 1	100 ± 2	35 ± 3	13 ± 13	–	–
CC[C@H](C)[C@@H](C(=O)O[C@@H](CC(C)C)C(=O)N[C@@H](CC(C)C)C(=O)N[C@@H](C)/C=C/C(=O)N1C(=O)C=C(OC)[C@@H]1C)N(C)C [gallinamide A]	44	100 ± 6	96 ± 4	96 ± 3	105 ± 6	99 ± 5	77 ± 3	73 ± 5	77 ± 4	73 ± 3	88 ± 6	93 ± 6	98 ± 7	94 ± 11	80 ± 2	89 ± 3	94 ± 94	< 10	8.2 ± 0.1
